This note sets out measurements from the pKa sets of Baltruschat and Czodrowski (2020).

“And” between values parts separate entries of the source, which are not always exact repeats. Equal values may be shown once.

Usually pKa stands for the pH at which an ionisable group is half protonated. Read a low pKa as a group that gives up its proton readily. Take `C=CCN(CC=C)CCCNC(=O)/C=N/[O-]`: the pKa (basic group) turned out to be 9.34.

Consider `Oc1ccc(F)cc1C[NH+]1CCCCC1`, for which the pKa (acidic group) worked out at 8.81.

As for `O/N=C1/CCCC(=N\O)/C1=N/O`, the pKa (acidic group) is 8.21 and 8.12.

Regarding `N#CC(C#N)=NNc1ccccc1`, the pKa reads like this: (acidic group) 6.55; (basic group) -0.82.

In the case of `CNC(=O)/C=C(\c1ccc2nc(N)n(C3CCCC3)c2c1)c1ccccc1F`, under “basic group”, the pKa turned out to be 6.7.

`CCc1cnc(C(=O)[O-])cc1CC` came in with a pKa (basic group) of 6.58.

For `CC1CCCC(C)C1C(=O)O` (stereo unspecified), the pKa (acidic group) turned out to be 4.88.

As for `C[NH+](C)Cc1cccc(O)c1`, where the note is “acidic group”, the pKa stood at 8.88.

With `Cc1cc2nc[nH]c2cc1C`, the pKa by setting is: (acidic group) 12.5; (basic group) 6.04.

Regarding `O=C1CC(Sc2ccccc2)N1` (stereo unspecified), the pKa (acidic group) came to 13.3.

Compound `CC[N+](O)(CC)c1ccccc1` returned a pKa (acidic group) of 4.53.

On to `CCCCOc1ccc(OCCCN2CCOCC2)cc1`, for which, where the note is “basic group”, the pKa amounted to 6.24.

In the case of `COc1cccc(O)c1`, the pKa (acidic group) is 9.51.

As for `OCc1ccccc1O`, the pKa (acidic group) turned out to be 9.92.

With `CCCCCCCCCCCCCCCCCCN(CC(C)O)CC(C)O` (stereo unspecified), under “basic group”, the pKa was 9.4.

For the setting “basic group”, `c1ccc(Oc2cccnc2)cc1` yielded a pKa of 4.24.

Regarding `CC/C=C/Cc1nccn1[C@H](C(=O)[O-])C(C)(C)S`, the pKa by setting is: (acidic group) 10.4; (basic group) 7.2.

For the compound `O=[N+]([O-])c1ccc(/C=N/c2ncccn2)cc1`, the pKa (basic group) amounted to 3.12.

The compound `N/C(CC/C(N)=[NH+]/O)=N\O` gave a pKa (basic group) of 3.11.

Regarding `Cc1cc(O)cc(C)c1[N+](=O)[O-]`, where the note is “acidic group”, the pKa was 8.25.

Turning to `CC(=O)N1CCNCC1`, the pKa (basic group) worked out at 7.94.

As to `S=CNc1ccc(Cl)cc1`, the pKa (acidic group) was found to be 10.8.

In turn, `CC1CCCC(C(=O)O)c2nnnn21` (stereo unspecified) had a pKa (acidic group) of 3.3.

Consider `CCN1CCC[C@@H]1CNC(=O)c1c([O-])c(Br)cc(Br)c1OC`, for which the pKa (basic group) worked out at 9.12.

As for `Nc1ccnc2ccc3ncccc3c12`, the pKa (basic group) was found to be 7.3.

`CCOCCn1c(CN2CCN(CCCCn3cccn3)CC2)nc2ccccc21` came in with a pKa (basic group) of 7.9.

On to `CC(C)(C)CC(=O)n1ccnc1`, for which, for the setting “basic group”, the pKa is 3.8.

In turn, `Cc1cncc(C)[nH+]1` showed a pKa (basic group) of -4.48.

`COc1cc(S(C)=O)ccc1-c1cn2cccnc2n1` (stereo unspecified): for the setting “basic group”, the pKa was 3.7.

`CCCCCCCCNCc1ccc(C)cc1` showed a pKa (basic group) of 9.47.

On to `CSc1ccc2ncccc2c1`, for which the pKa (basic group) was 4.75.

Take `C[NH+](C)CCCNc1ccnc2ccc([N+](=O)[O-])cc12`: the pKa (basic group) was found to be 6.99.

`CC(=O)c1ccc(C(=O)O)s1`: where the note is “acidic group”, the pKa was 3.

`O=[Se](O)c1ccc2ccccc2c1`: the pKa (acidic group) was found to be 4.67.

Where the note is “basic group”, `N/C(CC([NH3+])c1ccccc1)=N\O` (stereo unspecified) gave a pKa of 3.75.

With `CN(CCCN)CCC[NH3+]`, the pKa (basic group) worked out at 9.27.

Turning to `C[N+](C)(C)CCc1ccccc1O`, under “acidic group”, the pKa was determined as 9.57.

For the compound `NCC(=O)Nc1ccc([N+](=O)[O-])cc1`, the pKa (basic group) amounted to 8.5.

With `O/C(=C/c1ccncc1)c1ccccc1`, the pKa by setting is: (acidic group) 10.3; (basic group) 6.21.

`Cc1cc(C(c2ccc(N)cc2)c2ccc(N)cc2)ccc1N`: the pKa (basic group) came to 4.9.

`c1ccc(-c2cc3c(-c4ccccc4)ccnc3c3ncccc23)cc1` displayed a pKa (basic group) of 4.69.

On to `CCCCNc1cc[nH+]c(S)n1`, for which the pKa (acidic group) is 3.2.

In the case of `N#CCc1cccnc1`, under “basic group”, the pKa was determined as 3.78.

For the compound `O=C(O)[C@@H]1CC[C@@H](C(=O)O)S1`, the pKa (acidic group) is 3.3.

For the setting “basic group”, `CCN(CC)/N=C(\N)CC[Si](C)(C)C` came in with a pKa of 10.7.

Compound `O=C(O)c1ccc(O)c2ncccc12` showed a pKa (basic group) of 4.

As to `Cc1ccc(N2CCCC(=O)C(O)CCC2)cc1` (stereo unspecified), where the note is “basic group”, the pKa was determined as 3.2.

Turning to `CC(=O)c1ccc([N+](=O)[O-])cc1C(=O)O`, the pKa (acidic group) came out at 3.27.

`CC(O)[C@@H]1C[NH2+][C@H](C(=O)O)[C@H]1CC(=O)O` (stereo partly specified) showed a pKa (acidic group) of 2.94.

In the case of `CCc1c(O)ccc(C(C)C)c1C`, the pKa (acidic group) was 10.8.

For the setting “basic group”, `CNc1cc[nH+]c([O-])n1` displayed a pKa of 4.55.

Compound `CC(C)NCCc1ccc([O-])cc1` registered a pKa (basic group) of 10.8.

Compound `O=C1NC(=O)[C@H](CSSC[C@@H]2NC(=O)NC2=O)N1` returned a pKa (acidic group) of 8.1.

As for `O=C(C[n+]1cccc2c3ccccc3ccc21)c1ccc([N+](=O)[O-])cc1`, the pKa (acidic group) is 9.45.

Take `Sc1ccc(Cl)cc1`: where the note is “acidic group”, the pKa came out at 5.82.

Take `N/C(=N\O)C(N)c1ccccc1` (stereo unspecified): where the note is “basic group”, the pKa was 7.15.

Where the note is “basic group”, `C1CCN(CCN2CCCC2)C1` registered a pKa of 9.47.

Regarding `NCc1nnn[n-]1`, where the note is “basic group”, the pKa came to 8.54.

`CCCCN(CCCC)c1nnc(-c2ccccc2)cc1C` returned a pKa (basic group) of 4.88.

The compound `N=C(c1ccccc1)c1cccc(O)c1` had a pKa (basic group) of 6.92.

Consider `C#CCCN`, for which the pKa (basic group) turned out to be 9.23.

For the compound `Cc1cccc(S(N)(=O)=O)c1`, the pKa (acidic group) amounted to 9.51.

`Brc1ccnc2c1ccc1cccnc12` returned a pKa (basic group) of 4.03.

Where the note is “acidic group”, `COc1cccc([N+](=O)[O-])c1O` returned a pKa of 6.74.

For the compound `O=C([O-])c1ccc2ccccc2n1`, under “basic group”, the pKa turned out to be 4.97.

For the setting “acidic group”, `Oc1nc2cc3ccccc3cc2[nH]1` displayed a pKa of 11.6.

`Cc1cc2ncn([C@H]3OC[C@@H](O)[C@@H](O)[C@@H]3O)c2cc1C` registered a pKa (basic group) of 4.58.
